Assay results published in patent US4734416A, “Pharmaceutically useful carbostyril derivatives” (Otsuka Pharmaceutical Co., Ltd., priority 1978, dated 1988).
Structures can show the parent of a compound that is named as a salt.

Tests used:
[1] = antihistamic effect, literature value; cited from earlier work
[2] = target: T1, enucleated ileum of a guinea pig (Cavia porcellus, UniProt P31389); assay: Antihistamine activity test in vitro (enucleated guinea pig ileum, histamine retraction, pA2 by Van Rossam method); conditions: 10^-6 g/ml test compound, 5 minutes before histamine, 36° C.
T1 construct: the tissue of ileum is cut to a length of 2.5 to 3.0 cm and suspended in an organ bath; from tissue; host or cells: isolated ileum from the ileocecal region of male guinea pig
T1 sequence (P31389 whole entry): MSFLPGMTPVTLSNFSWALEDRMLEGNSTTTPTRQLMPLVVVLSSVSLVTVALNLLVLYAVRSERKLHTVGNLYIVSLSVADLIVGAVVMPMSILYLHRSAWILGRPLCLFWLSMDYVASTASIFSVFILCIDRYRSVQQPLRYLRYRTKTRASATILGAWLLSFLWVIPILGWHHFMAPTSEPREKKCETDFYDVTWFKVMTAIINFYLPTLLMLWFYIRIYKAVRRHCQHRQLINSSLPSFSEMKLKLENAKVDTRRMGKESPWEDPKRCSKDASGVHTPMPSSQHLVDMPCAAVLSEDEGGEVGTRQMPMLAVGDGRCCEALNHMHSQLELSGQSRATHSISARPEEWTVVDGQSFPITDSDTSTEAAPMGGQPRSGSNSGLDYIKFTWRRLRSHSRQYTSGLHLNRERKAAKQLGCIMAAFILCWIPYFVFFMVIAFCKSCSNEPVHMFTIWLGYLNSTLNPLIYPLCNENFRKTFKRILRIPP
Procedure: As to the test method for determining antihistamine activity of a compound in vitro, a method of using an enucleated ileum of a guinea pig is generally accepted.
A male guinea pig having 300 to 500 g body weight is killed by blood letting. An ileum having a length of 15 cm being enculeated from the ileocecal region is dipped into Tyrode's solution (which is prepared from […], 0.2 g of KCl, 0.2 g of CaCl2, 1.0 g of glucose, 1.0 g of NaHCO3, 0.065 g of NaHPO4.2H2 O and 0.2135 g of MgCl2.6H2 O to make 1000 ml in total volume by adding water). Then the tissue of ileum is cut to a length of 2.5 to 3.0 cm and suspended in an organ bath filled with 30 ml of Tyrode's solution. The organ bath is kept at a temperature of 36° C. and a mixed gas consisting of 5% of CO2 and 95% of O2 is blown into the bath. 10 Minutes after the blowing, 10^-6 M of histamine is added to the bath to examine the sensitivity of the tissue and a reaction curve (control) with respect to the dosage of histamine is obtained. After the dosage of histamine-reaction curve (control) becomes constant, 10^-6 g/ml of a compound to be tested is added to the bath and further histamine is added 5 minutes later to obtain a dosage-reaction curve. Retraction of the ileum is recorded on a pen-recorder through an isotonic transducer [TD-112S manufactured by Nihon Koden]. Antihistamine activity of the test compound is determined as pA2 value by the "Van Rossam" method [J. M. Van Rossam; Arch. Inst. Pharmacodyn., 143, 299 (1963)] wherein the maximum retraction of ileum caused by histamine shown in the control curve is 100%.

[3] = Halothane anesthesia increasing activity (righting reflex); assay type: in vivo, mouse (male, ddy-strain); conditions: oral
Procedure: Male mice of ddy-strain having about 20 g body weight are used. One test group consists of 10 mice. An aqueous Gummi Arabicum suspension of test compound (80 mg of a compound to be tested and 1 g of Gummi Arabicum/100 ml of physiological NaCl solution) is administered orally to each mouse at the dosage of 8 mg of test compound/kg body. One hour after the administration, each mouse is placed in a gas respiration chamber (13×13×24 cm) and oxygen gas containing 4% of Halothane [2-bromo-2-chloro-1,1,1-trifluoroethane] is blown into the chamber at the velocity of 2 l/min for 3 minutes. A mouse anaesthetized is taken out from the chamber and the time between the introduction of anesthesia to waking is measured by righting reflex as the index. To mice of the control group, 1% Gummi Arabicum aqueous physiological solution is orally administered at the dosage of 0.1 ml/10 g body. [Reference: M. J. Turnbull and J. W. Watkins: Br. J. Pharmac., 58, 27-35 (1976)]
Same procedures as mentioned in (II)-(A) are employed, except that the amount of test compound to be orally administered is changed in 4 steps at the dosage of 0.5 mg/kg, 1 mg/kg, 2 mg/kg and 4 mg/kg respectively to measure the relationship between the dosage and degree of strength of anesthesia increasing activity.

[4] = Hexabarbital sleep increasing activity (righting reflex); assay type: in vivo, mouse (male, ddy-strain); conditions: oral, Hexabarbital Na 70 mg/kg i.p.
Procedure: Male mice of ddy-strain having 20 to 25 g body weight are starved for 24 hours. One test group consists of 10 mice. An aqueous Gummi Arabicum suspension of test compound (0.05 g of test compound and 1 g of Gummi Arabicum/100 ml of physiological NaCl solution) is administered orally at the dosage mentioned in the Table 4. One hour after the administration 0.7% of Hexabarbitol.Na-salt is intraperitonerally administered at the dosage of 70 mg/kg body weight. The time between the introduction of sleep to waking is measured by righting reflex as the index. [Reference: A. M. Hjort, De E. J. Beer and D. W. Fassett; J. Pharmac., Exptl.

[5] = Activity for inhibiting fighting behavior of mouse isolated singly for a long period of time; assay type: in vivo, mouse (male, ddy-strain); conditions: positive if fighting no longer than 5 seconds in a minute, range in parentheses, read-out: ED50 (inhibition of fighting behavior)
Procedure: Individual male mice of ddy-strain having 15 to 20 g of body weight are breeded separately in respective cages for 1 month. One test group consists of 10 pairs of mice. The pairs of mice are selected so that when one mouse is taken into the home cage of another, the two mice fight together continuously for over 30 seconds. ED50 values are calculated by administering the respective test compounds to each test groups of mice. Activity for inhibiting fighting behavior of the test compound is determined as positive in case the administered mice only continue the fighting for no longer than 5 seconds in a minute. When the mice continue the fighting over 5 seconds they are forced to separate for the purpose of reducing the number of injured mice. [Reference: C. Y. Yen, R. L. Stanger and N. Millman: Arch. Int. Pharmacodyn., 123, 179 (1959)]

[6] = Analgetic activity (acetic acid writhing); assay type: in vivo, mouse (male, ddy-strain); conditions: Mus musculus, 50 min; oral, 50 minutes before acetic acid i.p.; range in parentheses; read-out: ED50 (analgetic activity)
Procedure: Male mice of ddy-strain having 15-23 g of body weight are used. One test group consists of 10 mice. The compound to be tested is administered orally by procedures similar to the method mentioned in (II). Fifty minutes after the administration, 0.1 ml of 0.6% acetic acid aqueous solution/10 g body weight is injected intraperitoneally. In case of the mice administered orally with the reference compound (Haloperidol), the injection is made 110 minutes after the administration. The number of writhings shown after 10 minutes is counted for 10 minutes and the ED50 value of respective compounds is calculated in comparison with the number of writhings shown by control group. [Reference: R. Koster, M. Anderson and E. I. Debeer: Fed. Proc., 18, 412, (1959)]

[7] = in vivo; conditions: mouse
Procedure: Mice of ddy-strain having 20-22 g of body weight are used. One test group consists of 10 mice.
Oral administration: Compound to be tested is suspended in 1% Gummi Arabicum physiological NaCl aqueous solution.
Intravenuous administration: Compound to be tested is dissolved in 50% propyleneglycol aqueous solution.

Row | SMILES | pA2 [1] | Kb [2] [nM] | Anesthesia increasing activity ([3]; 0.5 mg/kg) [min] | Anesthesia increasing activity ([3]; 1 mg/kg) [min] | Anesthesia increasing activity ([3]; 2 mg/kg) [min] | Anesthesia increasing activity ([3]; 4 mg/kg) [min] | Time (minutes) between introduction of anesthesia and waking ([3]; 8 mg/kg, 1 hour before 4% Halothane) [min] | Sleep time (min.) [Mean ± SD] ([4]; 0.5 mg/kg) [min] | Sleep time (min.) [Mean ± SD] ([4]; 1.0 mg/kg) [min] | Sleep time (min.) [Mean ± SD] ([4]; 2.0 mg/kg) [min] | Sleep time (min.) [Mean ± SD] ([4]; 4 mg/kg) [min] | Sleep time (min.) [Mean ± SD] ([4]; 8 mg/kg) [min] | ED50 [5] [mg/kg] | ED50 [6] [mg/kg] | LD50 ([7]; iv, female mice) [mg/kg] | LD50 ([7]; iv, male mice) [mg/kg] | LD50 ([7]; po, female mice) [mg/kg] | LD50 ([7]; po, male mice) [mg/kg]
1 | CC(C)(C)NCC(O)COc1cccc2c1CCC(=O)N2 (stereo not drawn) [5-(3-tert-butylamino-2-hydroxy)propoxy-3,4-dihydrocarbostyril hydrochloride] | 5.02 | – | – | – | – | – | – | – | – | – | – | – | – | – | – | – | – | –
2 | O=C1CCc2ccc(OCCCN3CCN(c4ccccc4)CC3)cc2N1 [Compound 6, 7-[3-(4-Phenylpiperazinyl)propoxy]-3,4-dihydrocarbostyril dihydrochloride] | – | 0.457 | 8.2 ± 2.6 | 10.3 ± 3.3 | 12.1 ± 4.2 | 16.6 ± 5.1 | 16.8 ± 6.2 | 43.76 ± 6.09 | 51.24 ± 11.75 | 54.11 ± 7.80 | 65.13 ± 11.59 | 85.83 ± 12.24 | 0.7 | 2.31 | 250 | 240 | 890 | 920
